Measurements taken from PubChem BioAssay (NCI).
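Step 1: Grow cells in 96-well plates. Step 2: Expose to compound for 48 hours at 5 concentrations. Step 3: Interpolate endpoints linearly; if unreached, use highest concentration. Abbreviation: GI50, concentration required for 50% inhibition of growth. At the TGI there is no net growth.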

Experiments:
Test in all cases: NCI-60 cell line screen, 48 h
ACHN renal = tested on: ACHN renal
UACC-257 melanoma = tested on: UACC-257 melanoma
HOP-92 NSCLC = tested on: HOP-92 NSCLC
DU-145 prostate = tested on: DU-145 prostate
CCRF-CEM leukemia = tested on: CCRF-CEM leukemia
SK-MEL-28 melanoma = tested on: SK-MEL-28 melanoma
SF-295 CNS = tested on: SF-295 CNS
K-562 leukemia = tested on: K-562 leukemia
SK-OV-3 ovarian = tested on: SK-OV-3 ovarian
SNB-75 CNS = tested on: SNB-75 CNS
SR leukemia = tested on: SR leukemia
MOLT-4 leukemia = tested on: MOLT-4 leukemia
OVCAR-8 ovarian = tested on: OVCAR-8 ovarian
A498 renal = tested on: A498 renal
HS 578T breast = tested on: HS 578T breast
COLO 205 colon = tested on: COLO 205 colon
UACC-62 melanoma = tested on: UACC-62 melanoma
PC-3 prostate = tested on: PC-3 prostate
CAKI-1 renal = tested on: CAKI-1 renal
SK-MEL-2 melanoma = tested on: SK-MEL-2 melanoma
OVCAR-5 ovarian = tested on: OVCAR-5 ovarian
OVCAR-3 ovarian = tested on: OVCAR-3 ovarian
TK-10 renal = tested on: TK-10 renal
UO-31 renal = tested on: UO-31 renal
HL-60(TB) leukemia = tested on: HL-60(TB) leukemia
OVCAR-4 ovarian = tested on: OVCAR-4 ovarian
NCI-H522 lung = tested on: NCI-H522 lung
RXF 393 renal = tested on: RXF 393 renal
A549 NSCLC = tested on: A549 NSCLC
BT-549 breast = tested on: BT-549 breast
MDA-MB-435 = tested on: MDA-MB-435
SF-268 CNS = tested on: SF-268 CNS

CC(C)=CCC[C@](C)(O)[C@H]1CC[C@]2(C)[C@@H]1CC[C@@H]1[C@@]3(C)CC[C@H](N)C(C)(C)[C@@H]3CC[C@]12C
GI50 (ACHN renal): 1.78 µM | TGI (ACHN renal): 3.16 µM | GI50 (UACC-257 melanoma): 2.06 µM | TGI (UACC-257 melanoma): 4.47 µM | GI50 (HOP-92 NSCLC): 1.76 µM | TGI (HOP-92 NSCLC): 5.46 µM | GI50 (DU-145 prostate): 1.92 µM | TGI (DU-145 prostate): 3.63 µM | GI50 (CCRF-CEM leukemia): 3.02 µM | TGI (CCRF-CEM leukemia): > 100 µM | GI50 (SK-MEL-28 melanoma): 1.8 µM | TGI (SK-MEL-28 melanoma): 3.35 µM | GI50 (SF-295 CNS): 1.81 µM | TGI (SF-295 CNS): 3.39 µM | GI50 (K-562 leukemia): 1.97 µM | TGI (K-562 leukemia): 5.71 µM | GI50 (SK-OV-3 ovarian): 3.23 µM | TGI (SK-OV-3 ovarian): 10.9 µM | GI50 (SNB-75 CNS): 10.5 µM | TGI (SNB-75 CNS): 26.4 µM | GI50 (SR leukemia): 1.17 µM | TGI (SR leukemia): 3.58 µM | GI50 (MOLT-4 leukemia): 2.1 µM | TGI (MOLT-4 leukemia): 4.98 µM | GI50 (OVCAR-8 ovarian): 2.18 µM | TGI (OVCAR-8 ovarian): 4.96 µM | GI50 (A498 renal): 1.88 µM | TGI (A498 renal): 3.55 µM | GI50 (HS 578T breast): 2.21 µM | TGI (HS 578T breast): 5.01 µM | GI50 (COLO 205 colon): 1.9 µM | TGI (COLO 205 colon): 3.68 µM | GI50 (UACC-62 melanoma): 1.66 µM | TGI (UACC-62 melanoma): 3.21 µM | GI50 (PC-3 prostate): 1.98 µM | TGI (PC-3 prostate): 4.23 µM | GI50 (CAKI-1 renal): 1.85 µM | TGI (CAKI-1 renal): 3.38 µM | GI50 (SK-MEL-2 melanoma): 2.02 µM | TGI (SK-MEL-2 melanoma): 4.05 µM | GI50 (OVCAR-5 ovarian): 1.64 µM | TGI (OVCAR-5 ovarian): 3.09 µM | GI50 (OVCAR-3 ovarian): 1.77 µM | TGI (OVCAR-3 ovarian): 3.27 µM | GI50 (TK-10 renal): 6.01 µM | TGI (TK-10 renal): 21.1 µM | GI50 (UO-31 renal): 1.54 µM | TGI (UO-31 renal): 2.9 µM | GI50 (HL-60(TB) leukemia): 1.87 µM | TGI (HL-60(TB) leukemia): 3.9 µM | GI50 (OVCAR-4 ovarian): 2.19 µM | TGI (OVCAR-4 ovarian): 5.74 µM | GI50 (NCI-H522 lung): 1.97 µM | TGI (NCI-H522 lung): 4.28 µM | GI50 (RXF 393 renal): 1.49 µM | TGI (RXF 393 renal): 2.85 µM | GI50 (A549 NSCLC): 1.87 µM | TGI (A549 NSCLC): 3.77 µM | GI50 (BT-549 breast): 14.3 µM | TGI (BT-549 breast): 55.8 µM | GI50 (MDA-MB-435): 1.87 µM | TGI (MDA-MB-435): 3.52 µM | GI50 (SF-268 CNS): 4.19 µM | TGI (SF-268 CNS): 21.8 µM
